# Measured values as given in ChEMBL document CHEMBL4622963, “Optimization of Nicotinamides as Potent and Selective IRAK4 Inhibitors with Efficacy in a Murine Model of Psoriasis” (ACS Med Chem Lett, 2020).
# Columns and labels:
# Mus musculus = species on record: Mus musculus; assay: animal or person; settings: C57BL/6, po, 144 h, read-out: INH
# [1] = molecular target: T1, Interleukin-1 receptor-associated kinase 4 (Homo sapiens, UniProt Q9NWZ3); assay: Inhibition of IRAK4 in human PBMC assessed as inhibition of LTA-induced IL-6 production preincubated for 30 mins followed by LTA-stimulation and measured after 5 hrs by ELISA; assay type: cell-based
# T1 sequence (Q9NWZ3 whole entry): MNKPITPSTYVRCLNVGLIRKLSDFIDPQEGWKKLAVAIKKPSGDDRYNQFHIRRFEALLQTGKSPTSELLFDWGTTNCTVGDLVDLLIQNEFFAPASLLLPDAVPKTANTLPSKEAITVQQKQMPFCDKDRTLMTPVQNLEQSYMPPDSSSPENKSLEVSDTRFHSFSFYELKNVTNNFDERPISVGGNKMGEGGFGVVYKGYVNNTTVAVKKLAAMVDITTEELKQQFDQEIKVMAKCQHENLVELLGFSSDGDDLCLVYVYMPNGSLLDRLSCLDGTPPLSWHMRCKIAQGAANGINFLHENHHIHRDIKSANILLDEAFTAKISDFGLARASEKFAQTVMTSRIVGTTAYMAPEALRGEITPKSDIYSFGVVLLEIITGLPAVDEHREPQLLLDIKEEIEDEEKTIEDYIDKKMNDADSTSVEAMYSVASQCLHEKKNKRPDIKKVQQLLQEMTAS
compound,measurement,setting,value
CC(C)Nc1cc(Nc2nc3ccnn3cc2F)ncc1C(=O)NC[C@@H](F)C(C)(C)O,inhibition in vivo at 10 mg/kg,Mus musculus,43%
same,IC50,[1],370 nM
